The structures appear in SMILES notation. Like-named read-outs stand apart in the source and are kept apart here.

Common to all, as to format: cell-based
Assay [1] concerns SARS-CoV-2 Beta strain (TY8-612).
In assay [2] the test system is SARS-CoV-2 Alpha strain (QK002).
Assay [3] has as its system SARS-CoV-2 Gamma strain (TY7-501).
Where [4] appears, read: Beta strain (TY8-612), CPE assay in Vero/TMPRSS2.
Where [5] appears, read: Alpha strain (QK002), CPE assay in Vero/TMPRSS2.
[6] abbreviates: Gamma strain (TY7-501), CPE assay in Vero/TMPRSS2.

The EC50 is the concentration needed to bring the measured effect to its halfway point. Read a low EC50 as greater potency. `CCN(Cc1cc(Nc2ncnc3ccccc23)cc(Cl)c1O)C(C)C` [Compound 11]: the EC50 in assay [1] (setting [4]) is 9.3 µM; in assay [2] (setting [5]), 3.8 µM; in assay [3] (setting [6]), 5.4 µM.
Regarding `CC(C)N(Cc1cc(Nc2ncnc3ccccc23)cc(Cl)c1O)C(C)C` [Compound 15], the values for the EC50 in assay [1] (setting [4]), in assay [2] (setting [5]) and in assay [3] (setting [6]) were 6.8 µM, 2.7 µM and 3.5 µM, respectively.
For the compound `CCN(Cc1cc(Nc2ncnc3ccccc23)cc(Cl)c1O)C1CCCCC1` [Compound 19], the values for the EC50 in assay [1], in assay [2] and in assay [3] were 8.6 µM, 5.8 µM and 4.2 µM, respectively.

(Values after patent US20250325547A1, “ANTI-SARS-COV-2 DRUG” (KAGOSHIMA UNIVERSITY, priority 2021, published 2025).)
